Data as given in US10421754B2, “Quinazoline derivative” (CSPC ZHONGQI PHARMACEUTICAL TECHNOLOGY (SHIJIAZHUANG) CO., …, priority 2014, dated 2019).

How the values were obtained:
BTK = BTK (Homo sapiens, UniProt Q06187); assay: In vitro enzyme experiment (ELISA), BTK; type: biochemical; details: Poly (Glu, Tyr)4:1 substrate, 5 μM ATP
Protocol: BTK: Bruton tyrosine kinase
(§1) ELISA: The enzyme plate was coated by enzyme reaction substrate (Poly (Glu, Tyr)4:1) at a density of 20 μg/ml. Then the enzyme, the sample and 5 μM ATP were mixed in the well to react. After the reaction, the substrate phosphorylation was detected by anti-phosphotyrosine monoclonal antibody (4G10). In the next step, the goat-anti-mouse IgG linking with horse radish peroxidase (HRP) and tetramethylbenzidine (TMB) were added sequentially in the well to evaluate the level of substrate phosphorylation by the degree of color depth. In the experiment, a blank group without tyrosine kinase and a control group with the corresponding concentration of DMSO were established. Finally, 50 μL/well of H2SO4 at a concentration of 0.18M was added in each well to stop the reaction. The optical density (OD) of each sample was measured in a micro-plate reader at 450 nm.
(§2) The relative inhibition rate of the compound against tyrosine kinase protein was determined.
(§3) According to the inhibition rates at different concentrations, IC50 was calculated by LOGIT method. The experiments were repeated three times, and the average of three IC50 values was the final index to evaluate the ability of inhibition.

HCC827 = assay: In vitro cell experiment (MTT), HCC827; type: cell-based; details: 72 h, human non-small cell lung carcinoma (EGFR1 19 exon mutation)
Protocol: (§4) Cells in logarithmic growth phase were seeded at a certain density in a 96-well plate (200 μL/well). The cells were allowed to grow for 24 h and subsequently treated with different concentrations of drugs (including a blank group and a control group) and incubated for 72 h at 37° C. Each concentration in a given experiment was tested in triplicate. After 72 h of exposure, 20 μL of the MTT labeling reagent was added to the medium (the final concentration of MTT was 0.5 mg/mL), and the cells were incubated for additional 4 h at 37° C. Following this process, 180 μL of the medium was removed and 130 μL of DMSO was added to each well, or the medium was completely removed and 150 μL of DMSO was added to each well. Then the plate was shaken and mixed in a micro-oscillator. Finally the optical density (OD) of each sample was measured in a micro-plate reader at 550 nm. Cell inhibition rate was calculated according to the following formula: […]
(§5) According to cell inhibition rates, IC50 was calculated by LOGIT method. The experiments were repeated twice and the data was expressed as means±SD.

PDGFRβ = PDGFRβ (Homo sapiens, UniProt P09619); assay: In vitro enzyme experiment (ELISA), PDGFRβ; type: biochemical; details: Poly (Glu, Tyr)4:1 substrate, 5 μM ATP
Protocol: PDGFRβ: Platelet-derived growth factor receptor β
as §1, §2, §3

Bel-7402 = assay: In vitro cell experiment (MTT), Bel-7402; type: cell-based; details: 72 h, human hepatoma carcinoma cells
Protocol: as §4, §5

FLT-1 = FLT-1 (Homo sapiens, UniProt P17948); assay: In vitro enzyme experiment (ELISA), FLT-1; type: biochemical; details: Poly (Glu, Tyr)4:1 substrate, 5 μM ATP
FLT-1, sequence (P17948 27-1338): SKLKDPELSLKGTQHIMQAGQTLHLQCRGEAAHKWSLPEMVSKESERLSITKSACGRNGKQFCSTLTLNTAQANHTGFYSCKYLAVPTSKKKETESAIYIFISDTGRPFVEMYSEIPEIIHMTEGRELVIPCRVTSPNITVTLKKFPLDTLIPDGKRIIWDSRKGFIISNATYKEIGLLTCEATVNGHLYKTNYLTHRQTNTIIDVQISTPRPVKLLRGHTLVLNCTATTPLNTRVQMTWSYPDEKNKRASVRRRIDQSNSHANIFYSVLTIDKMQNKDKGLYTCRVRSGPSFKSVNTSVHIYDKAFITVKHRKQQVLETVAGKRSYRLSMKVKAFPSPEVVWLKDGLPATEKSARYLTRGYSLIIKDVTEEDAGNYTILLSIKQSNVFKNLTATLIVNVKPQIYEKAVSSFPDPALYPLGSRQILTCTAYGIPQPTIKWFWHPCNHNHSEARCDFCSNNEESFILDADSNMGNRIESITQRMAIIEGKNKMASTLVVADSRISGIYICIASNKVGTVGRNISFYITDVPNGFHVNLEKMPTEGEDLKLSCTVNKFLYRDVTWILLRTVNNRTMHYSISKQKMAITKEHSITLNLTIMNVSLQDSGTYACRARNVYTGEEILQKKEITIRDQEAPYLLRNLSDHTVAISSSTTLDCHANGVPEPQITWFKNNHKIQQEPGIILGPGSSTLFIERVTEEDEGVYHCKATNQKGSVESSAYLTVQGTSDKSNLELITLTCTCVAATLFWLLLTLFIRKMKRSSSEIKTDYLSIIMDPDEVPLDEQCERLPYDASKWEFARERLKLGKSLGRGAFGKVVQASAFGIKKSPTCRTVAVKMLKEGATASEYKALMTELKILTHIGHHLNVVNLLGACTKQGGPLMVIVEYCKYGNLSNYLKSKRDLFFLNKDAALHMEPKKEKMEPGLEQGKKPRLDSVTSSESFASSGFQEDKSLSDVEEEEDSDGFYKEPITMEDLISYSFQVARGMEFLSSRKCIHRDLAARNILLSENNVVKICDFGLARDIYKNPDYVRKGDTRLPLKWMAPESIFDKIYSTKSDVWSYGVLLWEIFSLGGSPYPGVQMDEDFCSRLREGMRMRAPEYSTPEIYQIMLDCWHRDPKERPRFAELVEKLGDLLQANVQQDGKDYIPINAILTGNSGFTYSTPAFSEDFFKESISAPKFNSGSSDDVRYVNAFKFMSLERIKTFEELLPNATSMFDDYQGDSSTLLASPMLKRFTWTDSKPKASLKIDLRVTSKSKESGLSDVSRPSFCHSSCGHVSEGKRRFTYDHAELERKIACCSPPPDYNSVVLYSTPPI
Protocol: FLT-1: Human vascular endothelial growth factor receptor 1
as §1, §2, §3

HCT116 = assay: In vitro cell experiment (MTT), HCT116; type: cell-based; details: HCT-116, 72 h, human colon carcinoma cells
Protocol: as §4, §5

HT-29 = assay: In vitro cell experiment (MTT), HT-29; type: cell-based; details: 72 h, human colon carcinoma cells (expressing both c-KIT and PDGFR)
Protocol: as §4, §5

[1] = Mouse maximum tolerated dose (MTD) experiment; details: in vivo, mice, oral, administered 7 days then observed 7 days
Protocol: In the mouse MTD experiment, the mice were administrated with the present compounds.
Healthy mice, having a small difference in body's weights, were chosen. The chosen mice were placed in different layers of cages according to their body's weights. In each layer, the mice were randomly divided into groups. In each group, there were three mice.
The administration dosages were 1000, 500, 250, 125, 62.5 and 31.25 mg/kg respectively and each two dosages differed by a factor of 2. For each of administration dosages, three mice were allotted. The mice were administrated with the present compounds for 7 days and then observed for the next 7 days without the present compounds.
The present compounds were orally administrated with the mice according to the administration dosage and the body weight.

FGFR-1 = FGFR-1 (Homo sapiens, UniProt P11362); assay: In vitro enzyme experiment (ELISA), FGFR-1; type: biochemical; details: Poly (Glu, Tyr)4:1 substrate, 5 μM ATP
FGFR-1, sequence (P11362 22-822, species assumed): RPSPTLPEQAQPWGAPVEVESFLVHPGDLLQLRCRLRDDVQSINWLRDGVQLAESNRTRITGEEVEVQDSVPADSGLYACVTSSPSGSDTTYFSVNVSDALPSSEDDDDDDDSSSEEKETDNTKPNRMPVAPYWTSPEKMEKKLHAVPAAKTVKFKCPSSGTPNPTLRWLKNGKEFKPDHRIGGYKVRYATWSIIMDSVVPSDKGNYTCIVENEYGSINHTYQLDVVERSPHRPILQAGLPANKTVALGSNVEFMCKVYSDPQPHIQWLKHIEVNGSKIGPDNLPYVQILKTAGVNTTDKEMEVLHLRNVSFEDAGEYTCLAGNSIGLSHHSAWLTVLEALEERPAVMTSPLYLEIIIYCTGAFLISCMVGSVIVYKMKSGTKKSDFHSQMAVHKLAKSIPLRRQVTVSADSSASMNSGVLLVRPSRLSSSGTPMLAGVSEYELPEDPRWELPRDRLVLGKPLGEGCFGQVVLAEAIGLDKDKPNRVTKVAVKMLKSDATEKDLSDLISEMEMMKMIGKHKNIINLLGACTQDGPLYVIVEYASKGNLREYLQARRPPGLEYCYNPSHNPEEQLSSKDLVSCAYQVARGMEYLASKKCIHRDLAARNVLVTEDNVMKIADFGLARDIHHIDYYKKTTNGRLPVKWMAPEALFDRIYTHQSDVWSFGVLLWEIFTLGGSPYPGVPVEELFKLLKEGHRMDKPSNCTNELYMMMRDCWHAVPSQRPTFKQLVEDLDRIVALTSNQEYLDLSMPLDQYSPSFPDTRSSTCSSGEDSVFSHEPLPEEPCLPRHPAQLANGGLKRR
Protocol: FGFR-1: Fibroblast growth factor receptor 1
as §1, §2, §3

RET = RET (Homo sapiens, UniProt P07949); assay: In vitro enzyme experiment (ELISA), RET; type: biochemical; details: Poly (Glu, Tyr)4:1 substrate, 5 μM ATP
Protocol: RET: A receptor involved in thyroid cancer
as §1, §2, §3

KDR = KDR (Homo sapiens, UniProt P35968); assay: In vitro enzyme experiment (ELISA), KDR; type: biochemical; details: Poly (Glu, Tyr)4:1 substrate, 5 μM ATP
KDR, sequence (P35968 20-1356): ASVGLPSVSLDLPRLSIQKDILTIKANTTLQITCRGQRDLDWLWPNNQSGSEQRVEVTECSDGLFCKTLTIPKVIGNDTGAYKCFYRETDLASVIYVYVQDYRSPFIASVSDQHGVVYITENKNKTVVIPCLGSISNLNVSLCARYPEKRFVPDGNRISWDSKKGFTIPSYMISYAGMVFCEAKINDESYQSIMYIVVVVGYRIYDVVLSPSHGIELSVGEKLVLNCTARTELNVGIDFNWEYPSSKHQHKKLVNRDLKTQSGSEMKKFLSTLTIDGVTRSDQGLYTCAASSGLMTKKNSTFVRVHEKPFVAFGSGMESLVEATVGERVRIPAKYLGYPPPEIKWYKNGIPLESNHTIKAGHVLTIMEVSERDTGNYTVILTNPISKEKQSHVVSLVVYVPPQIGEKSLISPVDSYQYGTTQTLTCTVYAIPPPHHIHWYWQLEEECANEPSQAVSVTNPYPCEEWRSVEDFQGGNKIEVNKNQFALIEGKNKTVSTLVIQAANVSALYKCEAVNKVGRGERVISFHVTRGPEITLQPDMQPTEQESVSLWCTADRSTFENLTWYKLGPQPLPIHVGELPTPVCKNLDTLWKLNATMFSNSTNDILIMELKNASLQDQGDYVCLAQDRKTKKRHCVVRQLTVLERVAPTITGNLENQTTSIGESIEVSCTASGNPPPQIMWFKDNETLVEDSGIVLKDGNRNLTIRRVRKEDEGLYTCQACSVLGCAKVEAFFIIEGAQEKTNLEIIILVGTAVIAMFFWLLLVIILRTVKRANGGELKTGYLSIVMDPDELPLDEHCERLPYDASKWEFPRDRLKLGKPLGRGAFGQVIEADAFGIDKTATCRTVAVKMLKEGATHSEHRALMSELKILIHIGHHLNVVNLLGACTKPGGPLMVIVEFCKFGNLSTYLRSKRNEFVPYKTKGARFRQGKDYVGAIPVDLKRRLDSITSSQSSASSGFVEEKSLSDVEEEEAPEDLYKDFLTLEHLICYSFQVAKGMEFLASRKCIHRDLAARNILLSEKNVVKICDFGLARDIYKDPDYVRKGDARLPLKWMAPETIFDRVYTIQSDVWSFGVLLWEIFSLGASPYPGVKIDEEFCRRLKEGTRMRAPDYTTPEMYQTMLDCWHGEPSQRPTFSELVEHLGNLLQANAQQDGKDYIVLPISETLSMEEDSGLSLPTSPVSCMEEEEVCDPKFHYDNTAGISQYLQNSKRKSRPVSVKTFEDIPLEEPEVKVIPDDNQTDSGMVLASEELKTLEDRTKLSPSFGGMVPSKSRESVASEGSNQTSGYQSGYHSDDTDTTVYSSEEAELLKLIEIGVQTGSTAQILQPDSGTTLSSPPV
Protocol: KDR: Human vascular endothelial growth factor receptor 2
as §1, §2, §3

HUVEC = assay: In vitro cell experiment (MTT), HUVEC; type: cell-based; details: 72 h, human umbilical vein endothelial cell (KDR overexpressing)
Protocol: as §4, §5

PC-9 = assay: In vitro cell experiment (MTT), PC-9; type: cell-based; details: 72 h, human non-small-cell lung carcinoma cells (EGFR1 19 exon mutation)
Protocol: as §4, §5

AXL = AXL (Homo sapiens, UniProt P30530); assay: In vitro enzyme experiment (ELISA), AXL; type: biochemical; details: Poly (Glu, Tyr)4:1 substrate, 5 μM ATP
AXL, sequence (P30530 473-894): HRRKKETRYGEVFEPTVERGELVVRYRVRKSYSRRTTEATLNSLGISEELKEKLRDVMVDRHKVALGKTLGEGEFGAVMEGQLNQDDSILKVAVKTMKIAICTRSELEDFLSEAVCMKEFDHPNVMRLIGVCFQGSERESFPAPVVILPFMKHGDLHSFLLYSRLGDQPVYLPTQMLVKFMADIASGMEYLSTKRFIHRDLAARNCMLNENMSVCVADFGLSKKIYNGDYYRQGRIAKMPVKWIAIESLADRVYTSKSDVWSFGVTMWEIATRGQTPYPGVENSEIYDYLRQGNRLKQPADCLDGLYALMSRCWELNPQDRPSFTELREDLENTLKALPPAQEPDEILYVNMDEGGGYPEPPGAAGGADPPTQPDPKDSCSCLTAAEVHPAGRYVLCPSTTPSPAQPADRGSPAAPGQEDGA
Protocol: as §1, with “AXL: Anaplastic lymphoma kinase Methods: ELISA:” for “ELISA:”, “nm. The relative inhibition rate of the compound against tyrosine kinase protein was determined. According to the inhibition rates at different concentrations, IC50 was calculated by LOGIT method. The experiments were repeated three times, and the average of three IC50 values was the final index to evaluate the ability of inhibition.” for “nm.”

EGFR = EGFR (Homo sapiens, UniProt P00533); assay: In vitro enzyme experiment (ELISA), EGFR; type: biochemical; details: Poly (Glu, Tyr)4:1 substrate, 5 μM ATP
Protocol: EGFR: Human epidermal growth factor receptor 1
as §1, §2, §3

TT = assay: In vitro cell experiment (MTT), TT; type: cell-based; details: 72 h, human thyroid carcinoma cells (RET C634W mutation)
Protocol: as §4, §5

A498 = assay: In vitro cell experiment (MTT), A498; type: cell-based; details: 72 h, human renal carcinoma cells
Protocol: as §4, §5

Eca109 = assay: In vitro cell experiment (MTT), Eca109; type: cell-based; details: ECa-109, 72 h, human esophageal carcinoma cells
Protocol: as §4, §5

SGC7901 = assay: In vitro cell experiment (MTT), SGC7901; type: cell-based; details: SGC-7901, 72 h, human gastric carcinoma cells
Protocol: as §4, §5

CFPAC-1 = assay: In vitro cell experiment (MTT), CFPAC-1; type: cell-based; details: 72 h, human pancreatic carcinoma cells
Protocol: as §4, §5

A375 = assay: In vitro cell experiment (MTT), A375; type: cell-based; details: A-375, 72 h, human melanoma cells (KDR expressing)
Protocol: as §4, §5

3T3swiss = assay: In vitro cell experiment (MTT), 3T3swiss; type: cell-based; details: Fibroblast, 72 h, mouse fibroblasts (PDGFR overexpressing)
Protocol: as §4, §5

A549 = assay: In vitro cell experiment (MTT), A549; type: cell-based; details: 72 h, human non-small-cell lung carcinoma cells (EGFR1 wildtype)
Protocol: as §4, §5

A431 = assay: In vitro cell experiment (MTT), A431; type: cell-based; details: A-431, 72 h, human epidermoid carcinoma (EGFR1 overexpressing)
Protocol: as §4, §5

SK-OV-3 = assay: In vitro cell experiment (MTT), SK-OV-3; type: cell-based; details: 72 h, human ovarian carcinoma cells (EGFR2 overexpressing)
Protocol: as §4, §5

H292 = assay: In vitro cell experiment (MTT), H292; type: cell-based; details: NCI-H292, 72 h, human lung carcinoma cells (EGFR1 overexpressing)
Protocol: as §4, §5

BTK, sequence (Q06187 whole entry, species assumed): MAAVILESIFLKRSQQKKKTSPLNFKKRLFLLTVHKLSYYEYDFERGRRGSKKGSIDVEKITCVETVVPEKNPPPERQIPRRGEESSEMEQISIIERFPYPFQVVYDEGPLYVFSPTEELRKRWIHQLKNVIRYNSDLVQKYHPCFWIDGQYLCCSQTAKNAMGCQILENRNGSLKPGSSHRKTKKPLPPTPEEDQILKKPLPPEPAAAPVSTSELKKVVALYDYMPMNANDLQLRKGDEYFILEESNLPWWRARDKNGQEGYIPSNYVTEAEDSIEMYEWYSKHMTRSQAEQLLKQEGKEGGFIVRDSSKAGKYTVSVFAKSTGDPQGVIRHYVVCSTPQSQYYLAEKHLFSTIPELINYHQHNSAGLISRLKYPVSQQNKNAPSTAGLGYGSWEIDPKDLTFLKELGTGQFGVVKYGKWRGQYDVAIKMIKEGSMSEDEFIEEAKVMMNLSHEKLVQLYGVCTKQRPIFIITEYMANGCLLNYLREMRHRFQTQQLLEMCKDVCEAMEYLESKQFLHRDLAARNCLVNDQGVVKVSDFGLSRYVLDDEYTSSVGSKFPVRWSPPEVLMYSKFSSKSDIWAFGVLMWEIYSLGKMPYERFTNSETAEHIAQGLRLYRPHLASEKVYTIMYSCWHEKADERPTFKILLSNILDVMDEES

Row | SMILES | IC50 (BTK) [µM] | IC50 (PDGFRβ) [µM] | IC50 (Bel-7402) [µM] | IC50 (FLT-1) [µM] | IC50 (HCT116) [µM] | IC50 (HT-29) [µM] | IC50 (FGFR-1) [µM] | IC50 (RET) [µM] | IC50 (KDR) [µM] | IC50 (HUVEC) [µM] | IC50 (PC-9) [µM] | IC50 (AXL) [µM] | IC50 (TT) [µM] | IC50 (A498) [µM] | IC50 (Eca109) [µM] | IC50 (SGC7901) [µM] | IC50 (CFPAC-1) [µM] | IC50 (A375) [µM] | IC50 (3T3swiss) [µM] | IC50 (A549) [µM] | other results
1 | COc1cc2c(Nc3ccc(Br)cc3F)ncnc2cc1OCCCN(C)C [Compound 29, 4-(4-bromo-2-fluoroanilino)-6-methoxy-7-(3-(dimethylamino)-propoxy)quinazoline] | 0.26 | 0.246 | 5.88 | 0.0308 | 0.652 | 2.17 | 0.0246 | 0.0134 | 0.0174 | 0.0238 | 0.0071 | 1.83 | 0.127 | 2.36 | 5.42 | 4.45 | 5.15 | 0.102 | 1.37 | 2.16 | IC50 (HCC827): 0.0006 µM; MTD [1]: 125 to 250 mg/kg; IC50 (EGFR): 0.127 µM; IC50 (A431): 2.74 µM; IC50 (SK-OV-3): 2.56 µM; IC50 (H292): 0.0456 µM
2 | COc1cc2c(Nc3ccc(Br)cc3F)ncnc2cc1OCCCN1CCCC1 [Compound 19, 4-(4-bromo-2-fluoroanilino)-6-methoxy-7-(3-(pyrrolidine-1-yl)propoxy)quinazoline] | 0.22 | 0.113 | 3.59 | 0.0256 | 0.561 | 1.66 | 0.0157 | 0.0091 | 0.0106 | 0.0212 | 0.0063 | 1.55 | 0.11 | 2.06 | 4.65 | 2.76 | 4.08 | 0.112 | 1.09 | 1.43 | IC50 (HCC827): 0.0001 µM; MTD [1]: 250 to 500 mg/kg; IC50 (EGFR): 0.0663 µM; IC50 (A431): 1.06 µM; IC50 (SK-OV-3): 1.96 µM; IC50 (H292): 0.0382 µM
3 | COc1cc2c(Nc3ccc(F)c(Cl)c3)ncnc2cc1OCCCCN(C)C [Compound 37, 4-(3-chloro-4-fluoroanilino)-6-methoxy-7-(4-(dimethylamino)-butoxy)quinazoline] | 0.312 | 0.189 | 5.59 | 0.0304 | 0.562 | 2.5 | 0.0277 | 0.0158 | 0.0159 | 0.0295 | 0.0087 | 1.72 | 0.134 | 2.16 | 5.75 | 4.02 | 5.86 | 0.0782 | 1.55 | 1.77 | IC50 (HCC827): 0.0006 µM; MTD [1]: 250 to 500 mg/kg; IC50 (EGFR): 0.0985 µM; IC50 (A431): 1.09 µM; IC50 (SK-OV-3): 2.09 µM; IC50 (H292): 0.0396 µM
4 | COc1cc2c(Nc3ccc(Cl)cc3F)ncnc2cc1OCCCN1CCCC1 [Compound 44, 4-(2-fluoro-4-chloroanilino)-6-methoxy-7-(3-(pyrrolidin-1-yl)-propoxy)quinazoline, reference compound] | 0.424 | 0.306 | 9.68 | 0.0512 | 0.988 | 3.46 | 0.0398 | 0.0234 | 0.0405 | 0.199 | 0.0168 | 2.99 | 0.257 | 3.05 | 6.98 | 5.25 | 6.72 | 0.315 | 2.9 | 4.9 | IC50 (A431): 3.57 µM; IC50 (SK-OV-3): 4.03 µM; IC50 (H292): 0.124 µM
5 | COc1cc2c(Nc3ccc(F)c(Cl)c3)ncnc2cc1OCCCN(C)C [Compound 38, 4-(3-chloro-4-fluoroanilino)-6-methoxy-7-(3-(dimethylamino)-propoxy)quinazoline] | 0.325 | 0.268 | 5.94 | 0.0356 | 0.621 | 2.66 | 0.0289 | 0.0198 | 0.0176 | 0.0265 | 0.0077 | 2.15 | 0.115 | 2.26 | 5.93 | 3.85 | 5.79 | 0.178 | 1.56 | 2.36 | IC50 (HCC827): 0.0007 µM; MTD [1]: 125 to 250 mg/kg; IC50 (EGFR): 0.101 µM; IC50 (A431): 1.46 µM; IC50 (SK-OV-3): 2.06 µM; IC50 (H292): 0.0452 µM
6 | COc1cc2c(Nc3ccc(Br)cc3F)ncnc2cc1OCCCN1CCCCC1 [Compound 45, 4-(2-fluoro-4-bromoanilino)-6-methoxy-7-(3-(piperidin-1-yl)-propoxy)quinazoline, reference compound] | 0.414 | 0.328 | 6.26 | 0.0501 | 1.06 | 3.41 | 0.0416 | 0.0275 | 0.0386 | 0.187 | 0.0187 | 2.99 | 0.315 | 3.15 | 7.02 | 6.26 | 6.72 | 0.289 | 3.79 | 5.02 | IC50 (HCC827): 0.0097 µM; IC50 (EGFR): 0.159 µM; IC50 (A431): 4.15 µM; IC50 (SK-OV-3): 4.99 µM; IC50 (H292): 0.105 µM
